Reference: ChEMBL document CHEMBL1201862, “PubChem BioAssay data set” (2004)
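Growth conditions: 96-well plates. Treatment: test compound, 48 hours, 5 concentrations. Analysis: linear interpolation between bracketing concentrations; unreached endpoints set to highest concentration. GI50: concentration for 50% inhibition of growth.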 The source made the active and inactive calls. Rule as the data show it: active = GI50 up to about 1.1 µM and inactive = higher.

How the values were obtained:
Assay in all cases: inhibition of tumour cell growth, NCI panel, 48 h
DMS-114 = tested on: DMS-114
HCC 2998 = tested on: HCC 2998
SF-539 = tested on: SF-539
NCI-H23 = tested on: NCI-H23
Malme-3M = tested on: Malme-3M
SF-295 = tested on: SF-295
OVCAR-4 = tested on: OVCAR-4
786-0 = tested on: 786-0
HCT-116 = tested on: HCT-116
SK-MEL-28 = tested on: SK-MEL-28
EKVX = tested on: EKVX
SF-268 = tested on: SF-268
ACHN = tested on: ACHN
SK-MEL-5 = tested on: SK-MEL-5
UACC-62 = tested on: UACC-62
MDA-N = tested on: MDA-N
DU-145 = tested on: DU-145
MDA-MB-231 = tested on: MDA-MB-231
SR = tested on: SR
PC-3 = tested on: PC-3

Measured: GI50

CC1=C(O)/C(=C/C(C)CCC/C(C)=C/C=C/C(C)CCCc2ccoc2)OC1=O (configuration not stated)
inactive: DMS-114 49.7 µM | HCC 2998 23 µM | SF-539 30.3 µM | NCI-H23 23.7 µM | Malme-3M 10.1 µM | SF-295 31.9 µM | OVCAR-4 29.4 µM | 786-0 25.5 µM | HCT-116 > 10 µM | SK-MEL-28 25 µM | EKVX 25 µM | SF-268 26.7 µM | ACHN 19.2 µM

CC(C)(C)/N=C\N1CCC(C(c2ccccc2)c2ccccc2)CC1
inactive: DMS-114 72.1 µM | SK-MEL-5 67 µM | SF-539 78.7 µM | NCI-H23 > 100 µM | Malme-3M 18.2 µM | SF-295 > 100 µM | OVCAR-4 46.8 µM | 786-0 > 100 µM | HCT-116 50 µM | SK-MEL-28 43.4 µM | EKVX > 100 µM | SF-268 49.8 µM | UACC-62 35.7 µM | ACHN 82.4 µM

CC(C)C1CNC(=O)C2(/C=N/C(C(C)C)CNC(=O)C3(/C=N/1)CCCO3)CCCO2 (configuration not stated)
inactive: MDA-N > 10 µM | DU-145 > 10 µM | SK-MEL-5 > 10 µM | HCC 2998 > 10 µM | SF-539 > 10 µM | MDA-MB-231 > 10 µM | NCI-H23 > 10 µM | SR > 10 µM | Malme-3M > 10 µM | SF-295 > 10 µM | OVCAR-4 > 10 µM | 786-0 > 10 µM | HCT-116 > 10 µM | SK-MEL-28 > 10 µM | EKVX > 10 µM | PC-3 > 10 µM | SF-268 > 10 µM | UACC-62 > 10 µM | ACHN > 10 µM

O=c1c2ccccc2c(=O)c2c1cc(Cl)c1[nH]c3c([nH]c12)c(Cl)cc1c(=O)c2ccccc2c(=O)c13
inactive: DMS-114 > 100 µM | HCC 2998 > 100 µM | SF-539 > 100 µM | NCI-H23 > 100 µM | Malme-3M > 100 µM | SF-295 > 100 µM | OVCAR-4 > 100 µM | 786-0 > 100 µM | HCT-116 > 100 µM | SK-MEL-28 > 100 µM | EKVX > 100 µM | SF-268 > 100 µM | UACC-62 > 100 µM | ACHN > 100 µM

CCOc1ccc(/N=C\c2ccc3cc(C)ccc3n2)cc1
inactive: DMS-114 31.1 µM | SK-MEL-5 57.8 µM | HCC 2998 33.2 µM | SF-539 40.3 µM | NCI-H23 > 100 µM | Malme-3M > 100 µM | SF-295 68.5 µM | OVCAR-4 75.3 µM | 786-0 51.6 µM | SK-MEL-28 > 100 µM | EKVX 55.6 µM | SF-268 69 µM | UACC-62 37.9 µM | ACHN 35.8 µM

Nc1c(Cl)c([N+](=O)[O-])cc2c1OCCCCO2
inactive: MDA-N > 100 µM | DU-145 > 100 µM | SK-MEL-5 44.9 µM | HCC 2998 > 100 µM | SF-539 > 100 µM | MDA-MB-231 83.4 µM | NCI-H23 > 100 µM | SR > 100 µM | Malme-3M > 100 µM | SF-295 > 100 µM | OVCAR-4 > 100 µM | 786-0 > 100 µM | HCT-116 > 100 µM | SK-MEL-28 > 100 µM | EKVX 61.8 µM | PC-3 > 100 µM | SF-268 > 100 µM | UACC-62 95.5 µM | ACHN > 100 µM

O/N=C1/C(=C/c2ccc3c(c2)OCO3)CCCC1C(NO)c1ccc2c(c1)OCO2 (configuration not stated)
inactive: DMS-114 22.6 µM | SK-MEL-5 17.4 µM | HCC 2998 25 µM | SF-539 18 µM | NCI-H23 30.4 µM | Malme-3M 22 µM | OVCAR-4 24.6 µM | 786-0 28.9 µM | HCT-116 17.3 µM | SK-MEL-28 21.7 µM | EKVX 35.1 µM | SF-268 28.2 µM | UACC-62 19 µM | ACHN 31.6 µM
